Common to all, as to assay: HotSpot kinase profiling
What all share (type): biochemical

The target in one test is T1, IKKa/CHUK (Homo sapiens, UniProt O15111).
T1 construct: purchased Reaction Biology Corp
T1 sequence (O15111 1-745): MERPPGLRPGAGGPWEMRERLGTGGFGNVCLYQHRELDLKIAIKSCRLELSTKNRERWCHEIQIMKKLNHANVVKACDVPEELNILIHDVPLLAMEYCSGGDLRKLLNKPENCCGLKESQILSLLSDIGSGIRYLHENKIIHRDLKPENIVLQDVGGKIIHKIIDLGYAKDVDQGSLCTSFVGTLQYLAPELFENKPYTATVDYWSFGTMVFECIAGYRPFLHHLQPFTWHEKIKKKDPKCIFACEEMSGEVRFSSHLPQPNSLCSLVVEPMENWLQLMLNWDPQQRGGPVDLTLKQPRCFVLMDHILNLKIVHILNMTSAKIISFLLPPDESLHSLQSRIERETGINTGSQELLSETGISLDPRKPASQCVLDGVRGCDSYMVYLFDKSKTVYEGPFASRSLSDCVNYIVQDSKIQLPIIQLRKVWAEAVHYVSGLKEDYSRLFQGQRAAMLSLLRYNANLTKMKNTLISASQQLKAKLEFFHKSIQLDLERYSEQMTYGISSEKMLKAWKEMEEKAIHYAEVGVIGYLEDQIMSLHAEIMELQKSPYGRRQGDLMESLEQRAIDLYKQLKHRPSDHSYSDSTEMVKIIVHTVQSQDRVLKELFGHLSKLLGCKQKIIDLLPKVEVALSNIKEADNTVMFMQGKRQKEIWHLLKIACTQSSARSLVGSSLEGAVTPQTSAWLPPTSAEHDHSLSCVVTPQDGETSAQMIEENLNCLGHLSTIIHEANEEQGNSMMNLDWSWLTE
The gist of the method:
(§1)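 Percent inhibition, averaged when run more than once and referenced to a DMSO negative control, came from a radioactive filter-binding readout on P81 paper. Reactions of kinase with freshly made substrate and cofactors ran for 2 h at room temperature.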

The target in another test is T2, ULK1 (Homo sapiens, UniProt O75385).
T2 construct: purchased Reaction Biology Corp
T2 sequence (O75385 1-1050): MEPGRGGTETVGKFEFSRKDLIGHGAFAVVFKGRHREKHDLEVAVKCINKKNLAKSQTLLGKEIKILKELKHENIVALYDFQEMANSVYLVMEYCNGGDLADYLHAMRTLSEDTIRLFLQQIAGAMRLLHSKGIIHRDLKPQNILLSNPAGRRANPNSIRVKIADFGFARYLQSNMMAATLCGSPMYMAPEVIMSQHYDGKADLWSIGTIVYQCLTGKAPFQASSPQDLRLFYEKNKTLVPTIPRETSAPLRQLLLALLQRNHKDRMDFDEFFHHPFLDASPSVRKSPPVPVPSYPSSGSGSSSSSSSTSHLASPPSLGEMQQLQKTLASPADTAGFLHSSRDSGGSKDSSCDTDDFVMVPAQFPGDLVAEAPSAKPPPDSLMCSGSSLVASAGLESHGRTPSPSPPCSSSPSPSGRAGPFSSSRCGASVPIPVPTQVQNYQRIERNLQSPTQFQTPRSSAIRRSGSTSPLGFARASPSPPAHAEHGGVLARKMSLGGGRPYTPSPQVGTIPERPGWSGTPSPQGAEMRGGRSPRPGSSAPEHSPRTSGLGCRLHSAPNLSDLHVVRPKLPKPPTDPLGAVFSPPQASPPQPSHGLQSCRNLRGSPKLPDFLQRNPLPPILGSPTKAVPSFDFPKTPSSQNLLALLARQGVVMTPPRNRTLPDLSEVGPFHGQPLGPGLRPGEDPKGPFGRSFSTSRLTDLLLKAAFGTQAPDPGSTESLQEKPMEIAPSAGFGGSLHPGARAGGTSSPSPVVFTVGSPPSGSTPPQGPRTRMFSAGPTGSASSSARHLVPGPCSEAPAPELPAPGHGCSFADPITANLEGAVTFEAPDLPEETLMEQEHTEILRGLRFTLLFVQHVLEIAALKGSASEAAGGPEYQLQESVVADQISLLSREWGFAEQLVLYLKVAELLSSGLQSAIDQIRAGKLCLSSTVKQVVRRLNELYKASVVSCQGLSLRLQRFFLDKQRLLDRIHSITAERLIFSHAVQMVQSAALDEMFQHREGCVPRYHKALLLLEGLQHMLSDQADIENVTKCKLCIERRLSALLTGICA
The gist of the method: as §1

For a further test, the target named is T3, SIK3 (Homo sapiens, UniProt Q9Y2K2).
T3 construct: purchased Reaction Biology Corp
The gist of the method:
as §1

The target of another test is T4, SGK3/SGKL (Homo sapiens, UniProt Q96BR1).
T4 construct: purchased Reaction Biology Corp
T4 sequence (Q96BR1 1-496): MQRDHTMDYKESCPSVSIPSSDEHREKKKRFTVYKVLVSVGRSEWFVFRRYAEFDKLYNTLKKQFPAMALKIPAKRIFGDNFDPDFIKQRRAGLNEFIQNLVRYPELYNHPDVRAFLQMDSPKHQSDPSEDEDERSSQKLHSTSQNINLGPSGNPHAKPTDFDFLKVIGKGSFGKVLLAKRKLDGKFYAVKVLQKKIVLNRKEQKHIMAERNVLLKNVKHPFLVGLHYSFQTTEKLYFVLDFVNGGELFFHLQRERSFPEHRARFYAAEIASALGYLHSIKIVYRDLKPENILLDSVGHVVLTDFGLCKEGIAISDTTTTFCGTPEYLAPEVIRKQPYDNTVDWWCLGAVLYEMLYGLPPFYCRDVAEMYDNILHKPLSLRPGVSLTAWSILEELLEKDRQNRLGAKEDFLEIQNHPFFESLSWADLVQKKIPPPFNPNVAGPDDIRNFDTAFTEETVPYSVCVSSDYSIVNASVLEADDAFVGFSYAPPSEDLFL
The gist of the method:
as §1

[1] abbreviates: read-out: % Enzyme Activity (relative to DMSO controls) Run 1.
[2] abbreviates: read-out: % Enzyme Activity (relative to DMSO controls) Run 2.

Like-named read-outs stand apart in the source and are kept apart here.

The term inhibition denotes the drop in the measured response relative to a control, in per cent.

T3 sequence (Q9Y2K2 whole entry): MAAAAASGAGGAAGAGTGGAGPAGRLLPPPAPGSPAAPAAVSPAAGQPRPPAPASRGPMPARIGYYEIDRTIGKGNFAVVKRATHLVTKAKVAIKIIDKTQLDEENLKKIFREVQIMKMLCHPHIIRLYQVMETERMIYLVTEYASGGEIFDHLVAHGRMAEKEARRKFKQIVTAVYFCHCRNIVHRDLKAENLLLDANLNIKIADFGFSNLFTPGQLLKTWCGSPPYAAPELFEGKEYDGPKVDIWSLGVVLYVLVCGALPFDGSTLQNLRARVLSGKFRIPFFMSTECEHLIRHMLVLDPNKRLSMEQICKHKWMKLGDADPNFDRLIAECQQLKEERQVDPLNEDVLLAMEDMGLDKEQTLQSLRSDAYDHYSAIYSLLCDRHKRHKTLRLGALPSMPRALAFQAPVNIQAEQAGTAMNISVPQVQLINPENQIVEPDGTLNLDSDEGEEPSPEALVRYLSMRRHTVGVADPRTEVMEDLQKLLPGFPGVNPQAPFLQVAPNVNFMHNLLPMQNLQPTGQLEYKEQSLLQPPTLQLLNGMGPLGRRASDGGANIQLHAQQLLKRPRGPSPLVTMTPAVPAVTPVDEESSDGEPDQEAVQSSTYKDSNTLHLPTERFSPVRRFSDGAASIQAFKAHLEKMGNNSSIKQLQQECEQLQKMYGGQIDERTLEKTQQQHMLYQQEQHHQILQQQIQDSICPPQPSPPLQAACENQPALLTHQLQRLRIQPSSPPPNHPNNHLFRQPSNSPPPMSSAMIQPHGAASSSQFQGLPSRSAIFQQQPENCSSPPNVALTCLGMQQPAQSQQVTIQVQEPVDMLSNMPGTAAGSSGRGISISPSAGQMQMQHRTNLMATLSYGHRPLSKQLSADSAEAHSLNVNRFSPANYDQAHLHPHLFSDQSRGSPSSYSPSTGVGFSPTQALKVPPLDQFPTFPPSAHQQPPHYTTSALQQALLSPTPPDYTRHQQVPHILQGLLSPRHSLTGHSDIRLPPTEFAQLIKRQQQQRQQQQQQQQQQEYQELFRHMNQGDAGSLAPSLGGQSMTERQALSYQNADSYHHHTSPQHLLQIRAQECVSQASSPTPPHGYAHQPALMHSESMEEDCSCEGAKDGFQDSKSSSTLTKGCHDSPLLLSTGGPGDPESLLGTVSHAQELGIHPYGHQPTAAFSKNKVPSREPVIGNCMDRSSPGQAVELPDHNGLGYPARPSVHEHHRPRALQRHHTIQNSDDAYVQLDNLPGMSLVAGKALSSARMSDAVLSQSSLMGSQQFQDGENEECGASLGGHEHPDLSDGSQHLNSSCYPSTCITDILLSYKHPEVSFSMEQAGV

Consider `C=CC(=O)Nc1cccc(Nc2nc(Nc3ccc(OCCOC)c(F)c3)ncc2F)c1` [Compound 2], for which the inhibition at 3 µM against IKKa/CHUK is 8.54%; against ULK1, -0.59%; against SIK3 it was 7.93%; at SGK3/SGKL, -2.42%. The remaining activity at 3 µM turned out to be 91.4% on IKKa/CHUK (setting [1]); 91.5% on IKKa/CHUK (setting [2]); 100% at ULK1 (setting [1]); 101% on ULK1 (setting [2]); 91.3% at SIK3 (setting [1]); 92.8% on SIK3 (setting [2]). Also, the remaining activity at 3 µM on SGK3/SGKL (setting [1]) was determined as 99.5%; on SGK3/SGKL (setting [2]) it was 105%.
